Data from ChEMBL document CHEMBL5120942, “Designing a Small Fluorescent Inhibitor to Investigate Soluble Epoxide Hydrolase Engagement in Living Cells” (ACS Med Chem Lett, 2022).
Activity calls are given as the source filed them. No cut-off for these calls is given here.

Legend:
[1] = molecular target: T1, Bifunctional epoxide hydrolase 2 (Homo sapiens, UniProt P34913); assay: (§1) Inhibition of C-terminal domain of human sEH-H assessed as reduction in fluorescent naphthalene aldehyde formation using PHOME as substrate preincubated with enzyme for 30 mins followed by substrate addition and measured every minute for 45 mins by fluorescence based analysis
T1 sequence (P34913 whole entry): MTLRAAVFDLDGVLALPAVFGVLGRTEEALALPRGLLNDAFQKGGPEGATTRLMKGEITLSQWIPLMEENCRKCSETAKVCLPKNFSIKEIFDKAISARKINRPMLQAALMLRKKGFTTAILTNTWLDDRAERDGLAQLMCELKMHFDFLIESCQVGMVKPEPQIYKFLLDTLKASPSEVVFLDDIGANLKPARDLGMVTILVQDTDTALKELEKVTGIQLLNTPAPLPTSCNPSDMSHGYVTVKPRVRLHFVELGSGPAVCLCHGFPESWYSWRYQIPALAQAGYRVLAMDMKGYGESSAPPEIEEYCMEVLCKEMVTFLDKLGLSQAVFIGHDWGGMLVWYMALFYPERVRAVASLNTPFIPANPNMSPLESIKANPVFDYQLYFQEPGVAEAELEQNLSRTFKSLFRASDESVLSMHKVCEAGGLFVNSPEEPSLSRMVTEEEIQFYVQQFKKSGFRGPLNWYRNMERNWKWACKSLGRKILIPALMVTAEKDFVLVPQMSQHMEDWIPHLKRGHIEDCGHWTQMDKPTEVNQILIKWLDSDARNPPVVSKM

[2] = molecular target: T1, Bifunctional epoxide hydrolase 2; assay: Displacement of (1R,3S)-N-(4-methoxy-2-(trifluoromethyl)benzyl)-3-((7-nitrobenzo[c][1,2,5]-oxadiazol-4-yl)amino)cyclohexane-1-carboxamide from NanoLuc-fused human sEH ( 1 to 555 residues) expressed in HEK293T cells incubated for 5 hrs by NanoBRET analysis; assay type: cell-based; details: read-out: Ki(app)
[3] = molecular target: T1, Bifunctional epoxide hydrolase 2; assay: Inhibition of human sEH BacMam transduced HEK293 cells assessed as reduction in 14,15-DHET formation using 14,15-EET as substrate preincubated for 30 mins followed by susbtrate addition and measured after 90 mins by fluorescence polarization assay; assay type: cell-based
[4] = molecular target: T2, Bifunctional epoxide hydrolase 2 (Homo sapiens) (UniProt P34913); assay: Binding affinity to C-terminal domain of human sEH-H at 20 nM incubated for 1 hr by fluorescence polarization assay
T2 sequence (whole entry): T1 sequence (P34913 whole entry)

[5] = molecular target: T2, Bifunctional epoxide hydrolase 2 (Homo sapiens); assay: as §1; details: time 75.0 min, DDE = dose-dependent effect
[6] = molecular target: T1, Bifunctional epoxide hydrolase 2; assay: Binding affinity to NanoLuc-fused human sEH ( 1 to 555 residues) expressed in HEK293T cells incubated for 5 hrs by NanoBRET analysis; assay type: cell-based
[7] = molecular target: T3, Bifunctional epoxide hydrolase 2 (Mus musculus) (UniProt P34914); assay: (§2) Inhibition of C-terminal domain of mouse sEH-H assessed as reduction in fluorescent naphthalene aldehyde formation using PHOME as substrate preincubated with enzyme for 30 mins followed by substrate addition and measured every minute for 45 mins by fluorescence based analysis; details: time 75.0 min, DDE = dose-dependent effect
T3 sequence (whole entry): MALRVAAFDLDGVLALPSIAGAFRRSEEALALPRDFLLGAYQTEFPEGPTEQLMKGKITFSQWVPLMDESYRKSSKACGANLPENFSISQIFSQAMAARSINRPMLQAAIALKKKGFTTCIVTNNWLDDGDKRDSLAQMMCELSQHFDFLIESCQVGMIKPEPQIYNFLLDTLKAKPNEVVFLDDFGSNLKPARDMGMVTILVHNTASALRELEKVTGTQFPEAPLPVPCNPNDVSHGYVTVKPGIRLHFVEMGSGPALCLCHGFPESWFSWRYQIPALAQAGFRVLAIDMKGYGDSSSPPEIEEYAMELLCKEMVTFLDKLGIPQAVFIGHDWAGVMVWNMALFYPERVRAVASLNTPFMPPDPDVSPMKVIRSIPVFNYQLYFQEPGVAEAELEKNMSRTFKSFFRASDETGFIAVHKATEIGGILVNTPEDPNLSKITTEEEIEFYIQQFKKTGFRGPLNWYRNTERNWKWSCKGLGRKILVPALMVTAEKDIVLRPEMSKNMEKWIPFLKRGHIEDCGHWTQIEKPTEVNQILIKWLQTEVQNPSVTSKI

[8] = molecular target: T4, Bifunctional epoxide hydrolase 2 (Mus musculus, UniProt P34914); assay: as §2
T4 sequence (P34914 whole entry): T3 sequence (whole entry)

[9] = molecular target: T2, Bifunctional epoxide hydrolase 2 (Homo sapiens); assay: Binding affinity to human full length sEH (1 to 555 residues) expressed in doxycycline-induced HEK293 cells at 300 nM incubated for 5 hrs by Hoechst 33342 staining based fluorescence microscopy; assay type: cell-based
[10] = molecular target: T3, Bifunctional epoxide hydrolase 2 (Mus musculus); assay: Binding affinity to sEH in C57BL/6J mouse astrocytes at 10 uM incubated for 5 hrs by DAPI staining based immunocytochemistry; assay type: cell-based; details: Astrocyte

IC50 [1] | Ki [2] | IC50 [3] | Activity [4] | inhibition [5] | Kd [6] | inhibition [7] | IC50 [8] | Activity [9] | Activity [10] | SMILES
29.4 nM | 583 nM |  |  |  |  |  |  |  |  | O=C(NCc1ccc(NS(=O)(=O)C2CC2)cc1C(F)(F)F)c1ccc2[nH]ccc2c1
2.6 nM | 16 nM | 34 nM |  |  |  |  |  |  |  | O=C(O)CCCCCCCCCCNC(=O)NC12CC3CC(CC(C3)C1)C2
 | 24 nM |  |  |  |  |  |  |  |  | CNc1nc(C)nc(N[C@H]2CCC[C@@H](C(=O)NCc3ccc(C#N)cc3C(F)(F)F)C2)n1 [GSK2256294]
1.43 nM |  |  | Active | Dde | 6 nM | Dde | 7.71 nM | Active | Active | COc1ccc(CNC(=O)[C@@H]2CCC[C@H](Nc3ccc([N+](=O)[O-])c4nonc34)C2)c(C(F)(F)F)c1
